How the values were obtained:
[1] = system: primary cortical neurons injured by glutamate; assay: glutamate toxicity on primary cortical neurons (neuron survival, neurite network); assay type: cell-based, rat; conditions: glutamate 40 μM, 20 min
Description: Rat cortical neurons were cultured as described by Singer et al., 1999 [J. Neuroscience 19(7), 2455-2463] and Callizot et al. 2013 [J. Neurosc. Res. 91(5), 706-716].
Briefly, pregnant females (Wistar; JanvierLabs, St Berthevin, France) at 15 days of gestation were killed by cervical dislocation. Foetuses were collected and immediately placed in ice-cold L15 Leibovitz medium (Pan Biotech, Aidenbach, Germany, Batch: 4120413) with a 2% penicillin (10,000 U/ml) and streptomycin (10 mg/ml) solution (PS; Pan Biotech, Aidenbach, Germany) and 1% bovine serum albumin (BSA; Pan Biotech, Aidenbach, Germany). Cortex was treated for 20 min at 37° C. with a trypsin-EDTA (Pan Biotech, Aidenbach, Germany) solution at a final concentration of 0.05% trypsin and 0.02% EDTA. The dissociation was stopped by addition of Dulbecco's modified Eagle's medium (DMEM) with 4.5 g/liter of glucose (Pan Biotech, Aidenbach, Germany), containing DNAse I grade II (final concentration 0.5 mg/ml; Pan Biotech, Germany) and 10% fetal calf serum (FCS; Invitrogen, Cergy Pointoise, France). Cells were mechanically dissociated by three forced passages through the tip of a 10-ml pipette. Cells were then centrifuged at 515 g for 10 min at 4° C. The supernatant was discarded, and the pellet was resuspended in a defined culture medium consisting of Neurobasal medium (Invitrogen, Cergy Pointoise, France) with a 2% solution of B27 supplement (Invitrogen, Cergy Pointoise, France), 2 mmol/liter of L-glutamine (Pan Biotech, Aidenbach, Germany), 2% of PS solution, and 10 ng/ml of brain-derived neurotrophic factor (BDNF; Pan Biotech, Aidenbach, Germany). Viable cells were counted in a Neubauer cytometer, using the trypan blue exclusion test. The cells were seeded at a density of 30,000 per well in 96-well plates precoated with poly-L-lysine (Corning Biocoat, Tewksbury, USA) and were cultured at 37° C. in an air (95%)-CO2 (5%) incubator. The medium was changed every 2 days.
On day 13, the cultures were exposed for 20 minutes to glutamate 40 μM in the absence or presence of Huperzia serrata extracts. Then the cells were washed out and new fresh medium containing or not Huperzia serrata extracts was added for another 48 hours.
The cells were then fixed by a cold solution ethanol/acetic acid (95:5 v/v) for 5 minutes at −20° C. After permeabilization with 0.1% of saponin (Sigma), cells were incubated for 2 hours with mouse monoclonal antibody against microtubule-associated-protein 2 (MAP 2; Sigma) at dilution of 1/400 in PBS containing 1% foetal calf serum (Invitrogen) and 0.1% of saponin.
Neuron survival assessment: For each condition 6 wells were assessed, 20 pictures per well were taken using InCell Analyzer™ 1000 (GE Healthcare) with 20× magnification to assess cell bodies (MAP 2 staining). Analysis of picture was done using Developer software (GE Healthcare), the number of neurons per picture was recorded. A mean of neuron number of the 20 pictures was automatically calculated per well, then one data was provided per well (total of 6 raw data were provided per condition).
Neurite network length assessment: For each condition 6 wells were assessed, 20 pictures per well were taken using InCell Analyzer™ 1000 with 20× magnification (20 pictures at X20 representing ˜80% of the total well surface), to assess MAP-2 staining. Analysis of picture was done using Developer software, the total neurite length per picture was recorded. A mean neurite length of the 20 pictures was automatically calculated per well, then one data was provided per well (total of 6 raw data were provided per condition).
The protocol used in these assays is the same as described in example 1. After 13 days of neuron culture, the candidate compounds were solved in DMSO and diluted in culture medium. […]

mice = conditions: adult and aged mice; cited from earlier work
ALS patients = conditions: several months; cited from earlier work

O=C(O)c1cc(O)c(O)c(O)c1 [GA, gallic acid]
neuron survival ([1]; 10 and 50 μM): ~80%
neurite network ([1]; GA 10 pM to 50 μM): no protection

CC1=C[C@H]2Cc3[nH]c(=O)ccc3[C@]3(C1)NCCC[C@H]23 [HupB, Huperzine B]
memory retention and memory retrieval (mice): improved memory retention and memory retrieval

Nc1nc2ccc(OC(F)(F)F)cc2s1 [Riluzole]
prolongation of survival (ALS patients): ~7%

COc1cc(/C=C/C(=O)O)cc(OC)c1O [SA, sinapic acid]
neuron survival ([1]; 100, 10 and 1 nM): ~80%
neurite network ([1]; SA 10 pM to 50 μM): no protective effect
neuron survival ([1]; SA at the lowest concentrations): inactive

O=C(O)/C=C/c1ccc(O)cc1 [pCouA, para-coumaric acid]
neuron survival ([1]; 100 nM and 1 μM): ~80%
neurite network ([1]; only 1 μM): protective effect
survival and neurite network ([1]; p-CouA at the lowest concentrations): inactive
